Calls of active or inactive are those of the source.
Legend:
[1] = target: T1, Apoptotic protease-activating factor 1 (Homo sapiens, UniProt O14727); format: functional
T1 sequence (O14727 whole entry): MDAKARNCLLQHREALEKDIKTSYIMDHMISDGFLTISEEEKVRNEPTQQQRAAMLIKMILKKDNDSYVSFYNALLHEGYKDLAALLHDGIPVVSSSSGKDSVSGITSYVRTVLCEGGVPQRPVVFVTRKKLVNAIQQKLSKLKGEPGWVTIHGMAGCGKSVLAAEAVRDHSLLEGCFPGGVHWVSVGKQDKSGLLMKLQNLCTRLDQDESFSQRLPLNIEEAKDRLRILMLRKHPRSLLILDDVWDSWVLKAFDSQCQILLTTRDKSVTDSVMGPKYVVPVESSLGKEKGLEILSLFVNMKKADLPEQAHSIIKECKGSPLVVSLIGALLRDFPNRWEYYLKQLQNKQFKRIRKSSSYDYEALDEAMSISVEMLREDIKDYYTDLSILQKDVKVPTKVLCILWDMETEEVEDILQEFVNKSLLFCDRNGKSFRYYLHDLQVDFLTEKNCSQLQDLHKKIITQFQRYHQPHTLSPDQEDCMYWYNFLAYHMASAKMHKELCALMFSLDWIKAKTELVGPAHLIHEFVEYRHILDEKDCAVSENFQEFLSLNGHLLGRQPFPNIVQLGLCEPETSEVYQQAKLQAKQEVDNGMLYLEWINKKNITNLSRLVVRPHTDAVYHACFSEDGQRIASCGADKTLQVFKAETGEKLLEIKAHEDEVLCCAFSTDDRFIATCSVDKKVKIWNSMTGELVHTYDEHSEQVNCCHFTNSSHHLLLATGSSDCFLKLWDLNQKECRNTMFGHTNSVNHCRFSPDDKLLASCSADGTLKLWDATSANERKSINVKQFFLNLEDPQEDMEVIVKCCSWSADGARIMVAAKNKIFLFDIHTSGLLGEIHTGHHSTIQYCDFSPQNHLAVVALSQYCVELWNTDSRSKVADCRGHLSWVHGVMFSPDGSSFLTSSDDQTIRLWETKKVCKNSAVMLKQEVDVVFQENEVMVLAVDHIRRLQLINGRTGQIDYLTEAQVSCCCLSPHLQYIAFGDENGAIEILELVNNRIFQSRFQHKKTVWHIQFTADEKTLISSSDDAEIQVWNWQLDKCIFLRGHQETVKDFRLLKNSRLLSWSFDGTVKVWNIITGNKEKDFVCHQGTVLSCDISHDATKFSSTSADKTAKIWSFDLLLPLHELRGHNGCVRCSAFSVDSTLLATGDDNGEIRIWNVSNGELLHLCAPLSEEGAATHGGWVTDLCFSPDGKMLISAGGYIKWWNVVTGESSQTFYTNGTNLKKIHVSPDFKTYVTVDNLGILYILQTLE

[2] = THP-1 cell cytotoxicity, dose response, cytotoxicity control for Vif-APOBEC3G degradation inhibitor project, THP-1 cells (AID 1117359); format: functional; conditions: Human immunodeficiency virus 1, THP-1
Genome polyprotein = Genome polyprotein (dengue virus type 2, UniProt P29990); experiment: Dengue-2 NS5 methyltransferase inhibitors, primary screen, biochemical, confirmation dose response (AID 588689); format: functional
Chain of Genome polyprotein (P29990 2492-3391 limits assumed): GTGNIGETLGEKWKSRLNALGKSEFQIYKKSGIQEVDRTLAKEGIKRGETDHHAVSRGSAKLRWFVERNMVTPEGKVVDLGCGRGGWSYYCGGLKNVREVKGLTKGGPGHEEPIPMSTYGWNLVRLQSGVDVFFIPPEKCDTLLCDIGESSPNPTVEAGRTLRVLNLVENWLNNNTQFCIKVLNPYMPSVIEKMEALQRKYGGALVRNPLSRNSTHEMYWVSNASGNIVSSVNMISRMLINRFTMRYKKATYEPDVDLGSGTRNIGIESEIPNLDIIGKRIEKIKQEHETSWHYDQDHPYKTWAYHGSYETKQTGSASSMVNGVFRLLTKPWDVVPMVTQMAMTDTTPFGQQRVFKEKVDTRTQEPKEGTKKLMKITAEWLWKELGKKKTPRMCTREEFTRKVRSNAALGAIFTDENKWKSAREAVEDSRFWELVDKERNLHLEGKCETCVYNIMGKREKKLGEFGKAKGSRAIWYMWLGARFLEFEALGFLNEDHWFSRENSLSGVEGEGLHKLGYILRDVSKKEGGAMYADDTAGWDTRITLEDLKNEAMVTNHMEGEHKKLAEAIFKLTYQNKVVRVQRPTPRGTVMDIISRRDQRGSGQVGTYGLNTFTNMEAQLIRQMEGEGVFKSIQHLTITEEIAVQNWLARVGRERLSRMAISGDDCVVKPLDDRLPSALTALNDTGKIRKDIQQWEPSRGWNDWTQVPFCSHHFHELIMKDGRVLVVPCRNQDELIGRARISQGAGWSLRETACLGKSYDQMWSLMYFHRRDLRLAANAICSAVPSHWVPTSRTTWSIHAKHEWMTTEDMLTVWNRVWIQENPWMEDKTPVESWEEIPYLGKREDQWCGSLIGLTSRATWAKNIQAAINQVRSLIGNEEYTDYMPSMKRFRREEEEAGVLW

Protein Tat = target: T2, Protein Tat (Human immunodeficiency virus type 1 group M subtype B (isolate HXB2)(HIV-1), UniProt P04608); format: functional;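 also: tat binding to TAR RNA read out by fluorescence polarization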
T2 sequence (P04608 whole entry): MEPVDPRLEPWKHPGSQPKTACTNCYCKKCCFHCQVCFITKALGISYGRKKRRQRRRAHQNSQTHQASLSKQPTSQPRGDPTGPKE

[3] = inhibitors of Vif binding to APOBEC3G peptide, primary screen, biochemical, TR-FRET, GST-Vif 1-94, biotin-A3G peptide, dose response retest (AID 1117319); format: functional;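 also: TR-FRET signal of purified GST-Vif binding a biotinylated A3G peptide; inhibitors lower the FRET signal by blocking Vif and A3G binding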
[4] = P. falciparum late gametocyte killing, dose response, luminescence (AID 1117278); format: functional, cell-based;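 also: gametocytes exposed to compound for 24 hours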
[5] = Jurkat T cell cytotoxicity, dose response, cytotoxicity control for P. falciparum gametocyte viability project, luminescence (AID 1117277); format: functional, cell-based;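 also: potency reflects loss of cellular ATP meaning fewer viable cells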
[6] = growth suppression of PTEN-null colon cells, dose response, cell-based, HCT116 PTEN knockout (AID 1047); format: functional;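 also: HCT116 colon tumor cells with PTEN knocked out; cells exposed to compound for 60 hours before readout; potency for loss of cell viability measured by luminescence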
[7] = Vero cell cytotoxicity, dose response, cytotoxicity control for Vif-APOBEC3G degradation inhibitor project, Vero cells (AID 1117358); format: functional; conditions: Human immunodeficiency virus 1, Vero
Caspase-6 = target: T3, Caspase-6 (Homo sapiens, UniProt P55212); experiment: human caspase-6 inhibitors, dose response, biochemical, VEID-R110 fluorescence, cherry-pick (AID 720632)
T3 sequence (P55212 whole entry): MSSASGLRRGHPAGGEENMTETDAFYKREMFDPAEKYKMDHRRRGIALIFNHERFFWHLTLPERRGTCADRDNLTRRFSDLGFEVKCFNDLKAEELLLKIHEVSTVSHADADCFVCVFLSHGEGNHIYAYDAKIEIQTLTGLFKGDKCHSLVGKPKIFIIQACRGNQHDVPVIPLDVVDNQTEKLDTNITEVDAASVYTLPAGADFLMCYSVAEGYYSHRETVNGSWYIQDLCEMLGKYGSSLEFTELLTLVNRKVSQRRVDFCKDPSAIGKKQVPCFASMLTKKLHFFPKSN

[8] = growth suppression of beta-catenin-knockout colon cells, dose response, cell-based, HCT116, human colon tumor (AID 1045); format: functional;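 also: HCT116 colon tumor cells with beta catenin knocked out; cells exposed to compound for 60 hours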

Q: What does the source list for `CCc1ccc(CNc2ccc(O)cc2)cc1`?
A: IC50 [1]: 27.5 µM (active); CC50 [2]: 26.4 µM (active); IC50 (Genome polyprotein): > 100 µM (active); IC50 (Protein Tat): 25.4 µM (inconclusive); IC50 [3]: > 50.6 µM (active)

Q: For `CCOC(=O)C(C#N)C(c1cccnc1)c1c(C)n[nH]c1O` (configuration not stated), which IC50 [4] is on record?
A: The IC50 was > 109 µM (inactive).

Q: What about the IC50 [5] of the same compound?
A: Its IC50 is > 83.3 µM (inactive).

Q: For `CCOC(=O)c1c(C)oc2c1c(/C=N/Cc1ccccn1)c(O)c1ccccc12`, which EC50 [6] is on record?
A: Its EC50 is 25 µM (active).

Q: And the CC50 [7]?
A: Its CC50 is 34.4 µM (active).

Q: What about the AC50 (Caspase-6) of the same compound?
A: The AC50 was 11 µM (active).

Q: And the EC50 [8]?
A: Its EC50 is 26.4 µM (active).

Q: With `CC1=C(C(=O)NCc2ccco2)C2(CCC(C)CC2)OC1=O` (configuration not stated) as the compound, how does the IC50 [3] read?
A: Its IC50 is > 100 µM (active).

— ChEMBL document CHEMBL1201862, “PubChem BioAssay data set” (2004)
